Values belong to the molecule of their own block, whether it stands above or below them. The source made the active and inactive calls. No cut-off for these calls is given here.
Assays:
Trypanosoma cruzi [1] = assay: Antiparasitic activity against Trypanosoma cruzi strain CL Brener epimastigotes assessed as growth inhibition after 72 hrs by neubauer chamber analysis; assay type: functional, organism-based
Trypanothione reductase [2] = target: T1, Trypanothione reductase (Trypanosoma cruzi, UniProt P28593); assay: Time-dependent inhibition of Trypanosoma cruzi trypanothione reductase assessed as dissociation constants for enzyme-inhibitor binding using TS2 as substrate by DTNB-coupled assay; conditions: read-out: Ki(app)
T1 sequence (P28593 whole entry): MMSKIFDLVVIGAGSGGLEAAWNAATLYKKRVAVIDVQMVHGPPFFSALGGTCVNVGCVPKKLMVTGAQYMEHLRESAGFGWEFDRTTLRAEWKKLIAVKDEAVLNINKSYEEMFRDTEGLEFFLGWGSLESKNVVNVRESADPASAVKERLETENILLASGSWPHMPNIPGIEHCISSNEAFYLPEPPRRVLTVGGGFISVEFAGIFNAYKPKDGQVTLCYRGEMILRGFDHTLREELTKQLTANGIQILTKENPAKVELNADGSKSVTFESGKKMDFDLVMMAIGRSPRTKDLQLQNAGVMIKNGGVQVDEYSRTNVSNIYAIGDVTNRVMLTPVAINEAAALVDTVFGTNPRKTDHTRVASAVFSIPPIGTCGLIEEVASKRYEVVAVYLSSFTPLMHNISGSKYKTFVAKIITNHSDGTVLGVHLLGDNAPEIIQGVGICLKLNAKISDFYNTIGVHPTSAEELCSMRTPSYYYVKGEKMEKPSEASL

Trypanothione reductase [3] = target: T1, Trypanothione reductase; assay: Time-dependent inhibition of Trypanosoma cruzi trypanothione reductase assessed as stabilization of enzyme-inhibitor complexes using TS2 as substrate by DTNB-coupled assay; conditions: read-out: Ki(app)
HeLa [4] = assay: Cytotoxicity against human HeLa cells assessed as inhibition of cell proliferation at 5 ug/ml after 48 hrs by MTT assay; assay type: cell-based
HeLa [5] = assay: Cytotoxicity against human HeLa cells assessed as inhibition of cell proliferation at 5 to 10 ug/ml after 48 hrs by MTT assay; assay type: cell-based
[6] = target: Trypanothione reductase (Trypanosoma cruzi) (UniProt P28593); assay: Time-dependent inhibition of Trypanosoma cruzi trypanothione reductase using TS2 as substrate by DTNB-coupled assay
Chain of Trypanothione reductase (Trypanosoma cruzi) (P28593 whole entry, looked up): as the sequence (P28593 whole entry) above

Trypanosoma cruzi [7] = assay: Antiparasitic activity against Trypanosoma cruzi strain CL Brener epimastigotes assessed as growth inhibition at 6 ug/ml after 72 hrs by neubauer chamber analysis in presence of 5 uM H2O2 (reference value: 0%); assay type: functional
[8] = target: Trypanothione reductase (Trypanosoma cruzi) (UniProt P28593); assay: Reversible competitive slow-binding inhibition of Trypanosoma cruzi trypanothione reductase using TS2 as substrate by DTNB-coupled assay; conditions: TDE = time-dependent effect
Trypanosoma cruzi [9] = assay: Antiparasitic activity against Trypanosoma cruzi strain CL Brener epimastigotes assessed as growth inhibition at 4 ug/ml after 72 hrs by neubauer chamber analysis in presence of 10 uM H2O2 (Rvb= 0%); assay type: functional
Trypanosoma cruzi [10] = assay: Antiparasitic activity against Trypanosoma cruzi strain CL Brener epimastigotes assessed as growth inhibition at 6 ug/ml after 72 hrs by neubauer chamber analysis in presence of 20 uM H2O2 (Rvb= 8%); assay type: functional
Trypanosoma cruzi [11] = assay: Antiparasitic activity against Trypanosoma cruzi strain CL Brener epimastigotes assessed as growth inhibition at 4 ug/ml after 72 hrs by neubauer chamber analysis; assay type: functional; conditions: read-out: GI
Trypanosoma cruzi [12] = assay: Antiparasitic activity against Trypanosoma cruzi strain CL Brener epimastigotes assessed as growth inhibition at 6 ug/ml after 72 hrs by neubauer chamber analysis in presence of 10 uM H2O2 (Rvb= 7%); assay type: functional
Trypanosoma cruzi [13] = assay: Antiparasitic activity against Trypanosoma cruzi strain CL Brener epimastigotes assessed as growth inhibition at 4 ug/ml after 72 hrs by neubauer chamber analysis in presence of 20 uM H2O2 (Rvb= 3%); assay type: functional
Trypanosoma cruzi [14] = assay: Antiparasitic activity against Trypanosoma cruzi strain CL Brener epimastigotes assessed as growth inhibition at 6 ug/ml after 72 hrs by neubauer chamber analysis; assay type: functional; conditions: read-out: GI
Trypanosoma cruzi [15] = assay: Antiparasitic activity against Trypanosoma cruzi strain CL Brener epimastigotes assessed as growth inhibition at 4 ug/ml after 72 hrs by neubauer chamber analysis in presence of 5 uM H2O2 (reference value: 4%); assay type: functional

IC50 (Trypanosoma cruzi [1]): 55.8 µM
Compound: CCCNCCCCc1c(C)cc(C)c(O)c1C

Compound: Nc1nc(N)nc(Nc2ccc([As]=O)cc2)n1 (stereo not drawn) [MELARSEN OXIDE]
Ki (Trypanothione reductase [2]): 18 µM
Ki (Trypanothione reductase [3]): 1.4 µM

IC50 (Trypanosoma cruzi [1]): 104 µM
Compound: c1ccc(CCCNCc2ccccc2)cc1

IC50 (Trypanosoma cruzi [1]): 52.3 µM
Compound: CCCN(CCCCc1c(C)cc(C)c(O)c1C)CCCCc1c(C)cc(C)c(O)c1C

IC50 (Trypanosoma cruzi [1]): 19.8 µM
Compound: C=CCc1cc(C)c(O)c(C)c1CCCCN(CCCCc1c(CC=C)cc(C)c(O)c1C)Cc1ccccc1
Activity (HeLa [4]): Non-toxic

inhibition [6]: inactive
IC50 (Trypanosoma cruzi [1]): 10.1 µM
Compound: Cc1cc(C)c(CCCCNCc2ccccc2)c(C)c1O
Activity (HeLa [5]): Toxic

Ki (Trypanothione reductase [2]): 304 µM
Ki (Trypanothione reductase [3]): 114 µM
Compound: O=C1CC[C@]23/C=C/C(=O)NCCCCNCCCNC(=O)/C=C\c4ccc(c2c4)O[C@@H]3C1

IC50 (Trypanosoma cruzi [1]): 34.6 µM
Compound: c1ccc(CCCN(CCCc2ccccc2)Cc2ccccc2)cc1

inhibition [8]: tde
Ki (Trypanothione reductase [2]): 288 µM
IC50 (Trypanosoma cruzi [1]): 8 µM
Ki (Trypanothione reductase [3]): 37 µM
Compound: Cc1cc(C)c(CCCCN(CCCCc2c(C)cc(C)c(O)c2C)Cc2ccccc2)c(C)c1O
growth inhibition (GI) (Trypanosoma cruzi [7]): 58%
growth inhibition (GI) (Trypanosoma cruzi [9]): 52%
growth inhibition (GI) (Trypanosoma cruzi [10]): 53%
inhibition of growth at 4 µg/mL (Trypanosoma cruzi [11]): 50%
growth inhibition (GI) (Trypanosoma cruzi [12]): 58%
Activity (HeLa [4]): Non-toxic
growth inhibition (GI) (Trypanosoma cruzi [13]): 50%
inhibition of growth at 6 µg/mL (Trypanosoma cruzi [14]): 49%
growth inhibition (GI) (Trypanosoma cruzi [15]): 48%

IC50 (Trypanosoma cruzi [1]): 18.6 µM
Compound: CCCN(CCCc1ccccc1)CCCc1ccccc1
Activity (HeLa [4]): Non-toxic

IC50 (Trypanosoma cruzi [1]): 183 µM
Compound: C=CCc1cc(C)c(O)c(C)c1CCCCNCc1ccccc1

IC50 (Trypanosoma cruzi [1]): 485 µM
Compound: Cc1cc(C)c(CCCC=O)c(C)c1O

Compound: O=C(Cn1ccnc1[N+](=O)[O-])NCc1ccccc1 [BENZNIDAZOLE]
Activity (HeLa [4]): Non-toxic
IC50 (Trypanosoma cruzi [1]): 10 µM

IC50 (Trypanosoma cruzi [1]): 241 µM
Compound: CCCNCCCc1ccccc1
